In patent EP4385984A1, “PYRIDINE-N-OXIDES AS INHIBITORS OF NAV1.8” (Grünenthal GmbH, priority 2022, dated 2024):

Target: T1, human NaV1.8 (Homo sapiens, UniProt Q9Y5Y9)
T1 construct: expressed in transfected cells; host or cells: HEK
Assay: Electrophysiology: automated whole-cell voltage-clamp (patch clamp) recordings of sodium currents, Qube384
Assay type: cell-based
Details: HEK-NaV1.8 (NM 006514.1) with b3 recombinant cell line, multi hole plates, ambient room temperature, read-out: Potency category (human NaV1.8 IC50)
Method: The following NaV1.8 recombinant cell line was used for recordings: HEK-NaV1.8 (NM 006514.1) with b3 (NM_018400.3).
Sodium currents were measured using the patch clamp technique in the whole-cell configuration using the Qube384 (Sophion A/S, Copenhagen, Denmark) automated voltage clamp platform. "Multi hole" plates were used for the cell line expressing NaV1.8 while "single hole" plates were used for the recombinant cell lines expressing the other subtypes. Appropriate filters (for minimum seal resistance and minimum current size) and series resistance compensation (for high quality sodium channel recordings) were applied. Data was collected at ambient room temperature.
The recording […] solution contained (in mM): NaCl 145 mM, KCl 4 mM, CaCl2 2 mM, MgCh 1 mM, HEPES 10 mM, Glucose 10 mM, pH 7.4 (NaOH). The […] recording solution contained (in mM): CsF 120 mM, CsCl 20 mM, NaCl 10 mM, EGTA 10 mM, HEPES 10 mM, pH 7.2 (CsOH). Currents were recorded at 25 kHz sampling frequency and filtered at 5 kHz. Series resistance compensation was applied at 65%. Vehicle (VEH) is the control condition where cells are exposed to 0.3 % DMSO without compound. All runs include VEH controls being exposed to the same voltage protocols to assess non-compound related phenomena such as run down and then used to isolate compound dependent effects on currents.
To check for state-dependence inhibition, the following voltage-sequence was applied every 20 seconds: From a resting membrane potential of-120 mV, the first test pulse (P1; 20 ms to -10 mV) was applied to check for channels in the Resting State followed by a brief recovery (20 ms to -120 mV), then holding the membrane voltage to V1/2 (4 seconds at voltage to obtain half the channel at Rest and half Inactivated) with a subsequent second test pulse (P2; 20 ms to -10 mV) to check for channels in the Inactivated State, followed by another brief recovery (20 ms to -120 mV) and a final third test pulse (P3; 20 ms to -10 mV) to check for recovered channels.
To check for frequency-dependent inhibition, a 10 Hz protocol and a 20 Hz protocol were applied; namely,
From a resting membrane potential of -120 mV, 40-pulses (10 ms to -10 mV) was applied at 10 Hz (at 100 ms between pulses) and then at 20 Hz (at 50 ms between pulses).
Each parameter was recorded (P1, P2, P3, P40 from 10Hz and P40 from 20Hz) during a control period (lasting ~ 5 minutes) when establishing the baseline and during compound period (lasting ~ 12 minutes) when test compound (or vehicle) was applied. For each parameter, the value at the end of the compound period was normalized to the vehicle baseline; as follows Normalized Inhibition(NormCPD) = (CPD Valueend CPD period)/(VEH Valueend Control Period) [formula]
To adjust for any variance in the Na^+ current signal during the compound period (owing to cumulative inactivation independent of compound or shifts in biophysics over time), a dedicated segment of the recording wells in each 384 plate were dedicated to having only vehicle exposure. These vehicle-only recordings were used to correct for any apparent "run-up" or "run-down" in the experiment. Normalized Inhibition(NormVEH) = (VEH Valueend CPD period)/(VEH Valueend Control Period) [formula]
The adjusted inhibition was calculated as follows: % Inhibitioncorrected = 100 × (NormCPD −NormVEH)/(100−NormVEH) [formula]
Percent inhibition was determined and IC50 values were calculated using a 4 parameter logistic model within XLFit Software (IDBS, Boston MA): %Inhibitioncorrected = A + ((B−A))/((1 + (((x)/(C)))^D) [formula] where A and B are the maximal and minimum inhibition respectively, C is the IC50 concentration and D is the (Hill) slope.

T1 sequence (Q9Y5Y9 whole entry): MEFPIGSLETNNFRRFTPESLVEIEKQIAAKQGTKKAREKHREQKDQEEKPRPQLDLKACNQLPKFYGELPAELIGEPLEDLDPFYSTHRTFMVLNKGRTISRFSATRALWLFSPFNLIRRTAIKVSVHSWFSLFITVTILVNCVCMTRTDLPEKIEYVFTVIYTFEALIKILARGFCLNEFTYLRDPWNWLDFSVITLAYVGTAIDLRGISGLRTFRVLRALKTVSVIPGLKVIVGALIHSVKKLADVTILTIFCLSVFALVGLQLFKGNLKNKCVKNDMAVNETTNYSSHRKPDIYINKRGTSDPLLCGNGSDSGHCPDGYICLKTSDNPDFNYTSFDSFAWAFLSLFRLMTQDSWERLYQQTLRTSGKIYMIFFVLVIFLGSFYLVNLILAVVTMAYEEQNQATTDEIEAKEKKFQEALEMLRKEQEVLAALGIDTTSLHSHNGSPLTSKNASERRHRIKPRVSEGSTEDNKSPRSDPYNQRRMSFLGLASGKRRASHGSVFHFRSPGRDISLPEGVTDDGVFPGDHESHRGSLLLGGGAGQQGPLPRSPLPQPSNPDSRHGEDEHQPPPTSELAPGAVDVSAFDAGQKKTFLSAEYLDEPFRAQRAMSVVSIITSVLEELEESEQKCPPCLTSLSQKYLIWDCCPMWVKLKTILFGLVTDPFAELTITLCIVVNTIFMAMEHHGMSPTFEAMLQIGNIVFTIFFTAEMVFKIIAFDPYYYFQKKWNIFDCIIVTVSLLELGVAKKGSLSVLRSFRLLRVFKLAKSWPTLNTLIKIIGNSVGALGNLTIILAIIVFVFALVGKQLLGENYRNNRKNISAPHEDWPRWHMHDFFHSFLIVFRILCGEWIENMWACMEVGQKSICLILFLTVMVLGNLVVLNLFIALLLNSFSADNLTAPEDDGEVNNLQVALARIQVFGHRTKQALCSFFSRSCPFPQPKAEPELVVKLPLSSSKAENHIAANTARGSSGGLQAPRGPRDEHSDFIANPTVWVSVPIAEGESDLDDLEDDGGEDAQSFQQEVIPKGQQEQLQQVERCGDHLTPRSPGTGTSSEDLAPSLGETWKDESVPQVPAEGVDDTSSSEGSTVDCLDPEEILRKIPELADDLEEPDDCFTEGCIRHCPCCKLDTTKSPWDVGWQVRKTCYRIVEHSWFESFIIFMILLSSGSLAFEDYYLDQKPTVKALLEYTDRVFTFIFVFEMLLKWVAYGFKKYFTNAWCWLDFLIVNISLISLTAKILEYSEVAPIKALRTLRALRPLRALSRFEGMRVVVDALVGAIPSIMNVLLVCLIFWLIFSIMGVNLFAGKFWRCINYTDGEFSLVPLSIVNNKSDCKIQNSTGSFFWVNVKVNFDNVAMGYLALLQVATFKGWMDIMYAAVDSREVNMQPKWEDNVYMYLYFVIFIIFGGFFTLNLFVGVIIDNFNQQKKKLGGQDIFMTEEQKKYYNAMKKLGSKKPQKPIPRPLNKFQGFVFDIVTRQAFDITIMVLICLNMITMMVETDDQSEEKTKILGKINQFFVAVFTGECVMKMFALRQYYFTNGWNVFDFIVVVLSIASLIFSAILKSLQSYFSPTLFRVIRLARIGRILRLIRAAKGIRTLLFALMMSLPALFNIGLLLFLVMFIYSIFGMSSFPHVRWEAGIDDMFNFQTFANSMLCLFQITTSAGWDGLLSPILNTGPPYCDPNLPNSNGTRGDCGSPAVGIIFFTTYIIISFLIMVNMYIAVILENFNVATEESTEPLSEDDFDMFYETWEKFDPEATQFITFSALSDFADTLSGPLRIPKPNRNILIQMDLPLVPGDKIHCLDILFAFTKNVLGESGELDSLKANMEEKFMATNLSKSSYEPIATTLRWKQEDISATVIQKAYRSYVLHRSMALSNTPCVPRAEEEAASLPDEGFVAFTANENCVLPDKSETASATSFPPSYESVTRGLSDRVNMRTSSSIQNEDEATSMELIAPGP

Structure (SMILES)	IC50 [µM]
Cc1c(C(C)(F)F)nn(CC2(C)CCC(F)(F)C2)c1C(=O)Nc1cc[n+]([O-])c(C(N)=O)c1 (single isomer, unassigned) [Example 5a, 2-carbamoyl-4-(1-((3,3-difluoro-1-methylcyclopentyl)methyl)-3-(1,1-difluoroethyl)-4-methyl-1H-pyrazole-5-carboxamido)pyridine 1-oxide]	≤ 0.1
Cc1c(C(C)(F)F)nn(C[C@@H]2CCC(F)(F)C2)c1C(=O)Nc1cc[n+]([O-])c(C(N)=O)c1 [Example 1a, (R)-2-Carbamoyl-4-(1-((3,3-difluorocyclopentyl)methyl)-3-(1,1-difluoroethyl)-4-methyl-1H-pyrazole-5-carboxamido)pyridine 1-oxide]	0.1 to 1
Cc1c(C(C)(F)F)nn(C[C@H]2CCC(F)(F)C2)c1C(=O)Nc1cc[n+]([O-])c(C(N)=O)c1 [Example 1b, (S)-2-Carbamoyl-4-(1-((3,3-difluorocyclopentyl)methyl)-3-(1,1-difluoroethyl)-4-methyl-1H-pyrazole-5-carboxamido)pyridine 1-oxide]	0.1 to 1
Cc1c(C(C)(F)F)nn(CC2CC(F)(F)C2)c1C(=O)Nc1cc[n+]([O-])c(C(N)=O)c1 [Example 3, 2-carbamoyl-4-(1-((3,3-difluorocyclobutyl)methyl)-3-(1,1-difluoroethyl)-4-methyl-1H-pyrazole-5-carboxamido)pyridine 1-oxide]	0.1 to 1
Cc1c(C(C)(F)F)nn(CC2(C)CC(F)(F)C2)c1C(=O)Nc1cc[n+]([O-])c(C(N)=O)c1 [Example 4, 2-carbamoyl-4-(1-((3,3-difluoro-1-methylcyclobutyl)methyl)-3-(1,1-difluoroethyl)-4-methyl-1H-pyrazole-5-carboxamido)pyridine 1-oxide]	≤ 0.1
CC(F)(F)c1nn(CC2CC(F)(F)C2)c(C(=O)Nc2ccnc(C(=O)O)c2)c1C(F)(F)F [Example 7, 4-(1-((3,3-difluorocyclobutyl)methyl)-3-(1,1-difluoroethyl)-4-(trifluoromethyl)-1H-pyrazole-5-carboxamido)picolinic acid]	1 to 10
CC(F)(F)c1nn(CC2CC(F)(F)C2)c(C(=O)Nc2ccc(C(=O)O)nc2)c1C(F)(F)F [Example 8, 5-(1-((3,3-difluorocyclobutyl)methyl)-3-(1,1-difluoroethyl)-4-(trifluoromethyl)-1H-pyrazole-5-carboxamido)picolinic acid]	0.1 to 1
O=C(O)c1cc(NC(=O)c2c(C(F)(F)F)c(C3CC3)nn2CC2CCC(F)(F)CC2)ccn1 [Example 9, 4-(3-cyclopropyl-1-((4,4-difluorocyclohexyl)methyl)-4-(trifluoromethyl)-1H-pyrazole-5-carboxamido)picolinic acid]	0.1 to 1
CP(C)(=O)c1cc(NC(=O)c2c(C(F)(F)F)cnn2CC2CCCCC2)ccn1 [Example 10, 1-(cyclohexylmethyl)-N-(2-(dimethylphosphoryl)pyridin-4-yl)-4-(trifluoromethyl)-1H-pyrazole-5-carboxamide]	0.1 to 1
